In brackets after ≈: the same amount, converted by molar mass. Where two headings read alike, the source gives them in different places.
Tests used:
C. difficile = assay: MIC by broth microdilution against C. difficile strains; type: cell-based, Clostridioides difficile; settings: for MIC: Table 9, read-out: MIC
S. aureus ATCC29213 = assay: MIC against MSSA; type: cell-based, Staphylococcus aureus; settings: Staphylococcus aureus; S. aureus ATCC29213; Table 1; read-out: MIC
Corynebacterium spp. = assay: MIC against gut bacterium Corynebacterium spp.; type: cell-based; settings: Corynebacterium, Corynebacterium spp. strain HM-784
Bifidobacterium longum = assay: MIC against gut bacterium Bifidobacterium longum; type: cell-based; settings: Bifidobacterium longum, Bifidobacterium longum strain HM-846, read-out: MIC
MRSA (NRS70, NRS119) = assay: MIC against MRSA strains; type: cell-based, Staphylococcus aureus; settings: Staphylococcus aureus, read-out: MIC
Lactobacillus reuteri = assay: MIC against gut bacterium Lactobacillus reuteri; type: cell-based
Eubacterium sp. = assay: MIC against gut bacterium Eubacterium sp.; type: cell-based; settings: Eubacterium, Eubacterium sp. strain HM-178, read-out: MIC
[1] = test system: Fecal microbiota preparation; assay: MIC against fecal microbiota preparation; type: cell-based; settings: Fecal microbiota preparation from OpenBiome tested at 1000-fold dilution
Experimental: Minimum inhibitory concentrations (MIC). MICs for C. difficile strains and the common gut bacteria were determined using broth microdilution techniques as reported earlier using brucella broth supplemented with hemin and vitamin K or supplemented BHIS broth. Lactobacillus MRS broth was used for lactobacillus strains. Sodium lactate was supplemented in the media for Veillonella sp. […] All incubations, unless specified otherwise, were carried out at 24 h or 48 h at 37° C. in an anaerobic chamber (Whitley DG250 workstation, Microbiology International, Frederick, Md.). Corynebacterium and Lactobacillus species were incubated aerobically.

With `CCc1c(Cl)c(O)c(Cl)c(O)c1C(=O)O[C@H]1[C@H](O)[C@H](OC)[C@H](OC/C2=C\C=C\C[C@H](O)/C(C)=C/[C@H](CC)[C@@H](O[C@@H]3OC(C)(C)[C@@H](OC(=O)C(C)C)[C@H](O)[C@@H]3O)/C(C)=C/C(C)=C/C[C@@H]([C@@H](C)O)OC2=O)O[C@@H]1C` [FDX, fidaxomicin, reference compound] the MIC (C. difficile; Clostridioides difficile, C. difficile NR-13427) was 0.03 µg/mL (≈ 0.0284 µM), the MIC (C. difficile; Clostridioides difficile, C. difficile NR-13428) was no more than 0.03 µg/mL and the MIC (C. difficile; Clostridioides difficile, C. difficile NR-13429) was 0.25 µg/mL (≈ 0.236 µM). The MIC (C. difficile; Clostridioides difficile, C. difficile NR-13430) was no more than 0.03 µg/mL, the MIC (C. difficile; Clostridioides difficile, C. difficile NR-13434) was 0.06 µg/mL (≈ 0.0567 µM) and the MIC (C. difficile; Clostridioides difficile, C. difficile NR-13435) was no more than 0.03 µg/mL. It also gave an MIC (C. difficile; Clostridioides difficile, C. difficile NR-13437) of 0.25 µg/mL (≈ 0.236 µM), an MIC (C. difficile; Clostridioides difficile, C. difficile NR-13438) of 0.06 µg/mL (≈ 0.0567 µM) and an MIC (C. difficile; Clostridioides difficile, C. difficile NR-13553) of no more than 0.03 µg/mL. For the same compound, the MIC (C. difficile; Clostridioides difficile, C. difficile NR-32882) was 0.06 µg/mL (≈ 0.0567 µM), the MIC (C. difficile; Clostridioides difficile, C. difficile NR-32884) was 0.03 µg/mL (≈ 0.0284 µM) and the MIC (C. difficile; Clostridioides difficile, C. difficile NR-32885) was 0.25 µg/mL (≈ 0.236 µM). It also gave an MIC (C. difficile; Clostridioides difficile, C. difficile NR-32886) of 0.03 µg/mL (≈ 0.0284 µM), an MIC (C. difficile; Clostridioides difficile, C. difficile NR-32888) of 0.03 µg/mL (≈ 0.0284 µM) and an MIC (C. difficile; Clostridioides difficile, C. difficile NR-32889) of 0.25 µg/mL (≈ 0.236 µM). It also gave an MIC (C. difficile; Clostridioides difficile, C. difficile NR-32890) of 0.06 µg/mL (≈ 0.0567 µM), an MIC (C. difficile; Clostridioides difficile, C. difficile NR-32891) of 0.03 µg/mL (≈ 0.0284 µM) and an MIC (C. difficile; Clostridioides difficile, C. difficile NR-32892) of 0.03 µg/mL (≈ 0.0284 µM). It also gave an MIC (C. difficile; Clostridioides difficile, C. difficile NR-32895) of 0.03 µg/mL (≈ 0.0284 µM), an MIC (C. difficile; Clostridioides difficile, C. difficile NR-32896) of 0.03 µg/mL (≈ 0.0284 µM) and an MIC (C. difficile; Clostridioides difficile, C. difficile NR-32897) of 0.03 µg/mL (≈ 0.0284 µM). The MIC (C. difficile; Clostridioides difficile, C. difficile NR-32900) was 0.03 µg/mL (≈ 0.0284 µM), the MIC (C. difficile; Clostridioides difficile, C. difficile NR-32903) was 0.03 µg/mL (≈ 0.0284 µM) and the MIC (C. difficile; Clostridioides difficile, C. difficile NR-32904) was 0.03 µg/mL (≈ 0.0284 µM). For the same compound, the MIC (C. difficile; Clostridioides difficile, C. difficile NR-49277) was 0.06 µg/mL (≈ 0.0567 µM), the MIC (C. difficile; Clostridioides difficile, C. difficile NR-49278) was 0.25 µg/mL (≈ 0.236 µM) and the MIC (C. difficile; Clostridioides difficile, C. difficile NR-49279) was 0.25 µg/mL (≈ 0.236 µM). The MIC (C. difficile; Clostridioides difficile, C. difficile NR-49281) was 0.25 µg/mL (≈ 0.236 µM), the MIC (C. difficile; Clostridioides difficile, C. difficile NR-49282) was 0.06 µg/mL (≈ 0.0567 µM) and the MIC (C. difficile; Clostridioides difficile, C. difficile NR-49283) was 0.03 µg/mL (≈ 0.0284 µM). The MIC (C. difficile; Clostridioides difficile, C. difficile NR-49284) was 0.06 µg/mL (≈ 0.0567 µM), the MIC (C. difficile; Clostridioides difficile, C. difficile NR-49285) was 0.06 µg/mL (≈ 0.0567 µM) and the MIC (C. difficile; Clostridioides difficile, C. difficile NR-49286) was 0.25 µg/mL (≈ 0.236 µM). It also gave an MIC (C. difficile; Clostridioides difficile, C. difficile NR-49287) of 0.25 µg/mL (≈ 0.236 µM), an MIC (C. difficile; Clostridioides difficile, C. difficile NR-49288) of 0.25 µg/mL (≈ 0.236 µM) and an MIC (C. difficile; Clostridioides difficile, C. difficile NR-49289) of 0.03 µg/mL (≈ 0.0284 µM). The MIC (C. difficile; Clostridioides difficile, C. difficile NR-49290) was 0.06 µg/mL (≈ 0.0567 µM), the MIC (C. difficile; Clostridioides difficile, C. difficile NR-49291) was 0.25 µg/mL (≈ 0.236 µM) and the MIC (C. difficile; Clostridioides difficile, C. difficile NR-49293) was no more than 0.03 µg/mL. The MIC (C. difficile; Clostridioides difficile, C. difficile NR-49295) was no more than 0.03 µg/mL, the MIC (C. difficile; Clostridioides difficile, C. difficile NR-49296) was no more than 0.03 µg/mL and the MIC (C. difficile; Clostridioides difficile, C. difficile NR-49297) was 0.0125 µg/mL (≈ 0.0118 µM). It also gave an MIC (C. difficile; Clostridioides difficile, C. difficile NR-49300) of 0.03 µg/mL (≈ 0.0284 µM), an MIC (C. difficile; Clostridioides difficile, C. difficile NR-49301) of 0.03 µg/mL (≈ 0.0284 µM) and an MIC (C. difficile; Clostridioides difficile, C. difficile NR-49303) of 0.03 µg/mL (≈ 0.0284 µM). The MIC (C. difficile; Clostridioides difficile, C. difficile NR-49304) was 0.06 µg/mL (≈ 0.0567 µM), the MIC (C. difficile; Clostridioides difficile, C. difficile NR-49306) was 0.03 µg/mL (≈ 0.0284 µM) and the MIC (C. difficile; Clostridioides difficile, C. difficile NR-49307) was 0.03 µg/mL (≈ 0.0284 µM). The MIC (C. difficile; Clostridioides difficile, C. difficile NR-49309) was 0.03 µg/mL (≈ 0.0284 µM), the MIC (C. difficile; Clostridioides difficile, C. difficile NR-49311) was 0.03 µg/mL (≈ 0.0284 µM) and the MIC (C. difficile; Clostridioides difficile, C. difficile NR-49313) was 0.03 µg/mL (≈ 0.0284 µM). It also gave an MIC (C. difficile; Clostridioides difficile, C. difficile NR-49314) of 0.25 µg/mL (≈ 0.236 µM), an MIC (C. difficile; Clostridioides difficile, C. difficile NR-49315) of 0.06 µg/mL (≈ 0.0567 µM) and an MIC (C. difficile; Clostridioides difficile, C. difficile NR-49317) of 0.06 µg/mL (≈ 0.0567 µM). The MIC (C. difficile; Clostridioides difficile, C. difficile NR-49323) was no more than 0.03 µg/mL, the MIC (C. difficile; Clostridioides difficile, C. difficile NR-49324) was 0.06 µg/mL (≈ 0.0567 µM) and the MIC (C. difficile; Clostridioides difficile, C. difficile NR-49325) was 0.03 µg/mL (≈ 0.0284 µM). The MIC (C. difficile; Clostridioides difficile, C. difficile NR-49326) was 0.03 µg/mL (≈ 0.0284 µM), the MIC (C. difficile; Clostridioides difficile, C. difficile NR-49327) was 0.03 µg/mL (≈ 0.0284 µM) and the MIC (C. difficile; Clostridioides difficile, C. difficile NR-49328) was 0.03 µg/mL (≈ 0.0284 µM). It also gave an MIC (C. difficile; Clostridioides difficile, C. difficile NR-49329) of 0.03 µg/mL (≈ 0.0284 µM), an MIC50 (C. difficile; Clostridioides difficile, 101 C. difficile strains) of 0.06 µg/mL (≈ 0.0567 µM) and an MIC90 (C. difficile; Clostridioides difficile, 101 C. difficile strains, read-out: MIC90 (101 strains)) of 0.25 µg/mL (≈ 0.236 µM). For the same compound, the Selectivity (C. difficile; MIC MRSA NRS70/MIC C. difficile ATCC43255, Table 7) was 128, the MIC (S. aureus ATCC29213) was 8 µg/mL (≈ 7.56 µM) and the MIC (Corynebacterium spp.; Table 1) was less than 0.06 µg/mL. The MIC (Corynebacterium spp.; Table 7) was less than 0.0625 µg/mL, the MIC (Bifidobacterium longum; Table 1) was less than 0.01 µg/mL and the MIC (Bifidobacterium longum; Table 7) was less than 0.01 µg/mL. For the same compound, the MIC (MRSA (NRS70, NRS119); MRSA NRS70, Table 1) was 8 µg/mL (≈ 7.56 µM), the MIC (MRSA (NRS70, NRS119); MRSA NRS70, Table 7) was 8 µg/mL (≈ 7.56 µM) and the MIC (MRSA (NRS70, NRS119); MRSA NRS119, Table 1) was 2 µg/mL (≈ 1.89 µM). The MIC (Lactobacillus reuteri; Lactobacillus reuteri strain HM-102, Table 7) was greater than 32 µg/mL, the MIC (Lactobacillus reuteri; Limosilactobacillus reuteri, Lactobacillus reuter strain HM-102, Table 1, read-out: MIC) was greater than 32 µg/mL and the MIC (Eubacterium sp.; Table 1) was 16 µg/mL (≈ 15.1 µM). For the same compound, the MIC (Eubacterium sp.; Table 7) was 16 µg/mL (≈ 15.1 µM) and the MIC [1] was greater than 128 µg/mL.
